Assay results reported in patent publication US6613738B1, “Cyclic lipopeptide from Cryptosporiopsis quercina possessing antifungal activity” (HMV Corporation, priority 1998, dated 2003).
Numbered stars: 1 amine (or outer) side, 2 acyl side, 3 side chain; on linkers, the order of the positions; unused ones are H or OH. Bridge positions count the residues as written; N and C are the ends. Square brackets hold non-standard residues; d marks the D form. Peptide text beside a SMILES is read from it. * marks the point of attachment. ξ: configuration not given here. ξOrn(4,5-diOH) = O=C(C(CC(O)C(O)N[*:3])N[*:1])[*:2]; ξhTyr(βξ-OH,γξ-OH) = NC(C(=O)O)C(O)C(O)c1ccc(O)cc1; X1 = O=C(C1C(O)C(CO)CN1[*:1])[*:2]; Palmitoyl = CCCCCCCCCCCCCCCC(=O)*; Hyp = O=C(O)[CH]1C[CH](O)CN1

Key:
[1] = tested on: Cryptococcus neoformans; experiment: MIC, microbroth dilution assay (NCCLS); format: cell-based
[2] = tested on: Candida parasilopsis; experiment: MIC, microbroth dilution assay (NCCLS); format: cell-based
[3] = tested on: Candida albicans; experiment: MIC, microbroth dilution assay (NCCLS); format: cell-based
[4] = tested on: Histoplasma capsulatum; format: cell-based
[5] = tested on: Aspergillus fumigatus; experiment: MIC, microbroth dilution assay (NCCLS); format: cell-based
[6] = tested on: nail and skin infections; experiment: Nail and skin infections with human volunteers; format: in vivo

Molecule: C[C@@H]1[C@H](O)[C@@H](C)/C=C/C=C/C=C/C=C/C=C/C=C/C=C/[C@H](O[C@@H]2O[C@H](C)[C@@H](O)[C@H](N)[C@@H]2O)C[C@@H]2O[C@](O)(C[C@@H](O)C[C@@H](O)[C@H](O)CC[C@@H](O)C[C@@H](O)CC(=O)O[C@H]1C)C[C@H](O)[C@H]2C(=O)O [Amphotericin B, reference compound]
- Minimum Inhibitory Concentration [1]: 0.04 µg/mL
- Minimum Inhibitory Concentration [2]: 0.01 µg/mL
- Minimum Inhibitory Concentration [3]: 0.04 µg/mL
- Minimum Inhibitory Concentration [4]: 0.01 µg/mL
- Minimum Inhibitory Concentration [5]: 0.03 µg/mL

Molecule: CCCCCCCCCCCCCCCC(=O)NC1CC(O)C(O)NC(=O)C2C(O)C(CO)CN2C(=O)C(CCC(N)=O)NC(=O)C(C(O)C(O)c2ccc(O)cc2)NC(=O)C2CC(O)CN2C(=O)C(C(C)O)NC1=O (stereo not drawn) [Cryptocandin] (Palmitoyl-[ξOrn(4,5-diOH)]T[Hyp][ξhTyr(βξ-OH,γξ-OH)]Q[X1]; lactam 1-C; configuration not given here)
- Minimum Inhibitory Concentration [1]: >20 µg/mL
- effect on fungus (in words) [1]: little effect
- Minimum Inhibitory Concentration [2]: 2.5 µg/mL
- results on nail and skin infections [6]: promising results
- Minimum Inhibitory Concentration [3]: 0.03 µg/mL
- Minimum Inhibitory Concentration [4]: 0.01 µg/mL
- Minimum Inhibitory Concentration [5]: >20 µg/mL
- effect on fungus (in words) [5]: little effect

Molecule: Echinocandin B [reference compound]
- Minimum Inhibitory Concentration [1]: >20 µg/mL
- Minimum Inhibitory Concentration [3]: 0.3 µg/mL
- Minimum Inhibitory Concentration [5]: >20 µg/mL
